Blank lines part the entries; values can stand above or below the molecule they belong to.
Columns and labels:
[1] = target: T1, human LDHD (Homo sapiens, UniProt Q86WU2); assay: cytochrome c reduction, absorbance at […] nm; assay type: biochemical; settings: 200 µM bovine heart cytochrome c as electron acceptor, 50 mM potassium phosphate pH 8.5; 10 mM substrate
T1 construct: ~50 kDa predicted, dimer by gel filtration
T1 sequence (Q86WU2 53-484 isoform Q86WU2-2): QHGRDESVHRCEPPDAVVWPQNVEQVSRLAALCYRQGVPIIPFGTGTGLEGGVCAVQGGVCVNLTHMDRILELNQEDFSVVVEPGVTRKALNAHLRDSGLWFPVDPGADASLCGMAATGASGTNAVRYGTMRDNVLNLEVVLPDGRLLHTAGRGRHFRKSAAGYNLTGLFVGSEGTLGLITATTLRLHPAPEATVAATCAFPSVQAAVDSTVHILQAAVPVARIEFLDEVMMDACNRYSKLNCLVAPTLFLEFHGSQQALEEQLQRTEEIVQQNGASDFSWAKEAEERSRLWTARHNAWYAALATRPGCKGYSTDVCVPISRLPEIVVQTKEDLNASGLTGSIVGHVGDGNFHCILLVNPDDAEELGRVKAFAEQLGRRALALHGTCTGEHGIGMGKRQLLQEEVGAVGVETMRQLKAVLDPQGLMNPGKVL

[2] = target: T1, human LDHD; assay: cytochrome c reduction, absorbance at […] nm; assay type: biochemical; settings: 200 µM bovine heart cytochrome c as electron acceptor, 50 mM potassium phosphate pH 8.5
[3] = target: human D-lactate dehydrogenase (LDHD) isoform 2 (Komagataella phaffii | human); assay: SEC; Superdex 200 10/300 GL, after elution from Talon cobalt resin; running buffer not stated

Molecule: CC[C@@H](O)C(=O)O [D-2-hydroxybutyrate]
relative initial rate at 10 mM [1]: we identified D-2-hydroxybutyrate as another LDHD substrate that can be used to reduce cytochrome c

Km [2]: 112 µM
Molecule: C[C@@H](O)C(=O)O [D-lactate]

stoichiometry N [3]: 2
Molecule: human D-lactate dehydrogenase (LDHD) isoform 2 (enzyme)

— paper PMC11052718, “PMF-seq: a highly scalable screening strategy for linking genetics to mitochondrial bioenergetics” (Nature Metabolism, 2024)
